Source: patent US20230096028A1, “BICYCLIC HETEROCYCLYL COMPOUNDS AND USES THEREOF” (Revolution Medicines, Inc., priority 2019, published 2023)
Counter-ions that a name gives are not always drawn.

Experiments:
[1] = molecular target: T1, SOS1 catalytic domain (residues 564-1049) (Homo sapiens, UniProt Q07889); experiment: Potency Assay: binding affinity to SOS1 using Surface Plasmon Resonance (SPR); parameters: SOS1 catalytic domain (residues 564-1049) immobilized on a sensor chip; details: immobilized SOS1 catalytic domain (residues 564-1049), read-out: SOS1 SPR Equilibrium Kd
T1 sequence (Q07889 564-1049): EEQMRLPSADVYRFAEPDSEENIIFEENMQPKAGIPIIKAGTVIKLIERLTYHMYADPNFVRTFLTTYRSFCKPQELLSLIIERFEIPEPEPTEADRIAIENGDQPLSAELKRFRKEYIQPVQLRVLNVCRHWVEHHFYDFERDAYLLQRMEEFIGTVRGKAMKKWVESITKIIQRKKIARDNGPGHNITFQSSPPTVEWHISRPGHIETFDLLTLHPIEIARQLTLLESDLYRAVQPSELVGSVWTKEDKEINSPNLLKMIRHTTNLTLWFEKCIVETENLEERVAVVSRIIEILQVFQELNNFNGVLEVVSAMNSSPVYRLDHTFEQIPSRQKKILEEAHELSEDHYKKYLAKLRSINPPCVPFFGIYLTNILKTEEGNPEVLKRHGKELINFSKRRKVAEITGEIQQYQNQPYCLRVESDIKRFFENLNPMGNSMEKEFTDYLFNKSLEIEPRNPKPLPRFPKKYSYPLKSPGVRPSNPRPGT
Description: Data was reported as equilibrium dissociation constant (Kd) values.
Using a GE Biacore 8K SPR instrument, avi-tagged SOS1 catalytic domain protein was immobilized to a level of approximately 6000 response units (RU) on a streptavidin-coated SPR sensor chip in assay buffer containing 0.01 M HEPES, 0.15 M NaCl and 0.05% v/v Surfactant P20. […] For each test compound, a separate 0 μM sample was generated for use during subsequent double reference subtraction. Serially for each test compound, individual dilution samples were flowed over the immobilized SOS1 protein at a flow rate of 50 μL/minute to monitor the association with SOS1. Dissociation of bound test compound from the SOS1 protein was immediately monitored by flowing assay buffer over the sensor surface and monitoring the decrease in binding signal back to the baseline level seen in the absence of compound. This was repeated for all compound dilutions in each series. The binding level response for each test compound concentration was noted immediately prior to the end of the association phase, and a secondary plot generated showing binding response level versus test compound concentration generated for each compound dilution series.

[2] = molecular target: T1, SOS1 catalytic domain (residues 564-1049); experiment: Mode of Action Assay: inhibition of SOS1 nucleotide exchange activity (SOS1 TR-FRET IC50 Assay)
[3] = tested on: PC-9 cells (EGFR Ex19Del); experiment: Potency Assay: pERK (SOS1 pERK IC50 Assay, AlphaLISA SureFire Ultra p-ERK1/2); type: cell-based; details: Homo sapiens; PC-9 cells (EGFR Ex19Del), 1 hour incubation, AlphaLISA p-ERK1/2; read-out: SOS1 pERK IC50
How it was run: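 PC-9 (EGFR Ex19Del) cells plated overnight, then treated 1 h at 37° C. with 10-point 3-fold dilutions (top 10 μM final) in duplicate. Lysate pERK1/2 measured by AlphaLISA SureFire Ultra; IC50 from 4-parameter sigmoidal fit.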

Row | SMILES | Kd [1] [nM] | IC50 [2] [nM] | IC50 [3] [nM]
1 | C[C@@H](Nc1nc(Cl)nc2c1CN(C(=O)c1cc3c(cn1)OCCO3)C2)c1cc(N)cc(C(F)(F)F)c1 [Example 175] | > 400 | > 1000 | 
2 | COc1ccc(C(=O)N2Cc3nc(Cl)nc(N[C@H](C)c4cc(N)cc(C(F)(F)F)c4)c3C2)cc1OC [Example 172] | < 400 | < 1000 | 
3 | C[C@@H](Nc1nc(Cl)nc2c1CN(C(=O)N1C[C@H]3COC[C@H]3C1)C2)c1cc(N)cc(C(F)(F)F)c1 [Example 149] | < 400 |  | 
4 | C[C@@H](Nc1nc(Cl)nc2c1CN(C(=O)N1CCNCC1C(F)(F)F)C2)c1cc(N)cc(C(F)(F)F)c1 (stereo partly drawn) [Example 358] | < 400 | < 1000 | 
5 | COC1(C(=O)N2Cc3nc(C(F)(F)CN)nc(N[C@H](C)c4cccc(C(F)F)c4F)c3C2)CCOCC1 [Example 488, 2-(2-amino-1,1-difluoroethyl)-N-[(1R)-1-[3-(difluoromethyl)-2-fluorophenyl]ethyl]-6-(4-methoxyoxane-4-carbonyl)-5H,6H,7H-pyrrolo[3,4-d]pyrimidin-4-amine] | < 400 | < 1000 | 
6 | C[C@@H](Nc1nc(Cl)nc2c1CN(S(=O)(=O)N1CCOCC1)C2)c1cccc(C(F)(F)CO)c1 [Example 178] | < 400 | < 1000 | 
7 | C[C@@H](Nc1nc(OC2COC2)nc2c1CN(C(=O)N1CCOCC1)C2)c1cc(N)cc(C(F)(F)F)c1 [Example 133, N-[(1R)-1-[3-amino-5-(trifluoro-methyl)phenyl]ethyl]-6-(morpholine-4-carbonyl)-2-(oxetan-3-yl-oxy)-5H,6H,7H-pyrrolo[3,4-d]pyrimidin-4-amine] | > 400 | > 1000 | 
8 | Cc1nc2c(c(N[C@H](C)c3cc(N)cc(C(F)(F)F)c3)n1)CN(c1ccc(Br)cn1)C2 [Example 44, N-[(1R)-1-[3-amino-5-(trifluoromethyl)phenyl]ethyl]-6-(5-bromo-2-pyridyl)-2-methyl-5,7-dihydropyrrolo[3,4-d]pyrimidin-4-amine] | > 400 | > 1000 | 
9 | C[C@@H](Nc1nc(Cl)nc2c1CN(C(=O)N1CCN(C)c3ncccc31)C2)c1cccc(C(F)F)c1F [Example 426] | > 400 | < 1000 | 
10 | C[C@@H](Nc1nc(Cl)nc2c1CN(C(=O)c1ccc3c(n1)OCCO3)C2)c1cc(N)cc(C(F)(F)F)c1 [Example 80] | > 400 | > 1000 | 
11 | C[C@@H](Nc1nc(Cl)nc2c1CN(C(=O)N1CCc3ncccc3C1)C2)c1cc(N)cc(C(F)(F)F)c1 [Example 147] | < 400 | > 1000 | 
12 | C[C@@H](Nc1nc(Cl)nc2c1CN(C(=O)c1cnc3cc[nH]c3c1)C2)c1cc(N)cc(C(F)(F)F)c1 [Example 90] | > 400 | > 1000 | 
13 | C[C@@H](Nc1nc(Cl)nc2c1CN(C(=O)[C@H]1CC[C@@H](O)CC1)C2)c1cc(N)cc(C(F)(F)F)c1 [Example 99] | > 400 | < 1000 | 
14 | C[C@@H](Nc1nc(Cl)nc2c1CN(S(=O)(=O)N1CC(C#N)C1)C2)c1cc(N)cc(C(F)(F)F)c1 [Example 26] | > 400 |  | 
15 | CCOCCS(=O)(=O)N1Cc2nc(Cl)nc(N[C@H](C)c3cc(N)cc(C(F)(F)F)c3)c2C1 [Example 50] | > 400 | > 1000 | 
16 | COC1CN([C@@H]2CCc3nc(Cl)nc(N[C@H](C)c4cc(N)cc(C(F)(F)F)c4)c3C2)C1 [Example 431] | < 400 | < 1000 | 
17 | C[C@@H](Nc1nc(Cl)nc2c1CN(C(=O)N1CCC(C)(N)CC1)C2)c1cc(N)cc(C(F)(F)F)c1 [Example 157] | < 400 |  | 
18 | COC1(C(=O)N2Cc3nc(Cl)nc(N[C@H](C)c4cccc(C(F)F)c4F)c3C2)CCN(C(C)=O)CC1 [Example 345] | < 400 | < 1000 | 
19 | C[C@@H](Nc1nc(Cl)nc2c1CN(C(=O)N1CC3CCC(C1)O3)C2)c1cc(N)cc(C(F)(F)F)c1 [Example 153] | < 400 |  | 
20 | COC(=O)N1Cc2nc(C)nc(N[C@H](C)c3cc(N)cc(C(F)(F)F)c3)c2C1 [Example 117, methyl 4-{[(1R)-1-[3-amino-5-(trifluoromethyl)phenyl]ethyl]amino}-2-methyl-5H,6H,7H-pyrrolo[3,4-d]pyrimidine-6-carboxylate] | > 400 |  | 

Row | SMILES | Kd [1] [nM] | IC50 [2] [nM] | IC50 [3] [nM]
21 | C[C@@H](Nc1nc(Cl)nc2c1CN(C(=O)N1CCC(O)CC1)C2)c1cc(N)cc(C(F)(F)F)c1 [Example 155] | < 400 |  | 
22 | C[C@@H](Nc1nc(Cl)nc2c1CN(C(=O)N1CC3(CCCO3)C1)C2)c1cc(N)cc(C(F)(F)F)c1 [Example 156] | < 400 |  | 
23 | C[C@@H](Nc1nc(Cl)nc2c1CN(C(=O)N1CCc3ncncc3C1)C2)c1cc(N)cc(C(F)(F)F)c1 [Example 144] | < 400 |  | 
24 | C[C@@H](Nc1nc(Cl)nc2c1CN(C(=O)N1C3CCC1COC3)C2)c1cc(N)cc(C(F)(F)F)c1 [Example 158] | < 400 |  | 
25 | C[C@@H](Nc1nccc2nc(C(=O)N3CCNCC3)cn12)c1cccc(C(F)F)c1F [Example 530, [5-[[(1R)-1-[3-(difluoromethyl)-2-fluoro-phenyl]ethyl]amino]imidazo[1,2-c]pyrimidin-2-yl]-piperazin-1-yl-methanone hydrochloride] | < 400 |  | 
26 | C[C@@H](Nc1nc(Cl)nc2c1CN(C(=O)C1CC3(CCNCC3)C1)C2)c1cc(N)cc(C(F)(F)F)c1 [Example 79] | < 400 |  | 
27 | C[C@@H](Nc1nc(Cl)nc2c1CN(S(=O)(=O)N1CCNCC1)C2)c1cc(N)cc(C(F)(F)F)c1 [Example 28] | < 400 |  | 
28 | C[C@@H]1COC[C@H](C)N1C(=O)N1Cc2nc(Cl)nc(N[C@H](C)c3cc(N)cc(C(F)(F)F)c3)c2C1 [Example 164] | < 400 |  | 
29 | C[C@@H](Nc1nc(Cl)nc2c1CN(C(=O)C1CC3(CNC3)C1)C2)c1cc(N)cc(C(F)(F)F)c1 [Example 98] | < 400 |  | 
30 | C[C@@H](Nc1nc(Cl)nc2c1CN(C(=O)C1CC(=O)N(c3ccc4c(c3)OCO4)C1)C2)c1cc(N)cc(C(F)(F)F)c1 (stereo partly drawn) [Example 106] | < 400 |  | 
31 | C[C@@H](Nc1nc(Cl)nc2c1CN(C(=O)N1CC[C@H](O)C1)C2)c1cc(N)cc(C(F)(F)F)c1 [Example 161] | < 400 |  | 
32 | C[C@@H](Nc1nc(Cl)nc2c1CN(C(=O)c1cc3c(s1)CCOC3)C2)c1cc(N)cc(C(F)(F)F)c1 [Example 105] | > 400 |  | 
33 | C[C@@H](Nc1nc(Cl)nc2c1CN(C(=O)N1CCOCC1)C2)c1cncc(C(F)(F)F)c1 [Example 480, 2-chloro-6-(morpholine-4-carbonyl)-N-[(1R)-1-[5-(trifluoromethyl)pyridin-3-yl]ethyl]-5H,6H,7H-pyrrolo[3,4-d]pyrimidin-4-amine] |  | > 1000 | > 1000
34 | C[C@@H](Nc1ncnc2c1CN(CC1CCOC1)C2)c1cc(N)cc(C(F)(F)F)c1 (stereo partly drawn) [Example 54, N-[(1R)-1-[3-amino-5-(trifluoromethyl)phenyl]ethyl]-6-(tetrahydrofuran-3-ylmethyl)-5,7-dihydropyrrolo[3,4-d]pyrimidin-4-amine] |  | > 1000 | > 1000
35 | C[C@@H](Nc1nc(Cl)nc2c1CN(C(=O)N1CCOCC1)C2)c1cccc(N2CC(O)C2)c1 [Example 518, [2-chloro-4-[[(1R)-1-[3-(3-hydroxyazetidin-1-yl)phenyl]ethyl]amino]-5,7-dihydropyrrolo[3,4-d]pyrimidin-6-yl]-morpholino-methanone] |  | < 1000 | > 1000
36 | CC(Nc1nc(Cl)nc2c1CN(C(=O)N1CCOCC1)C2)c1cccc(C(F)(F)CO)c1Cl (stereo not drawn) [Example 506, 2-[2-chloro-3-(1-{[2-chloro-6-(morpholine-4-carbonyl)-5H,6H,7H-pyrrolo[3,4-d]pyrimidin-4-yl]amino}ethyl)phenyl]-2,2-difluoro-ethan-1-ol] |  | < 1000 | < 1000
37 | C[C@@H](Nc1nc(Cl)nc2c1CN(C(=O)C1(N)CCCOC1)C2)c1cc(N)cc(C(F)(F)F)c1 (stereo partly drawn) [Example 88] | < 400 |  | 
38 | C[C@@H](Nc1nc(Cl)nc2c1CN(C(=O)C13COCC(CO1)C3)C2)c1cc(N)cc(C(F)(F)F)c1 (stereo partly drawn) [Example 273] |  | < 1000 | < 1000
39 | C[C@@H](Nc1nc(Cl)nc2c1CN(C(=O)c1cccc(Cl)n1)CC2)c1cc(N)cc(C(F)(F)F)c1 [Example 252] |  | > 1000 | > 1000
